Reference: patent publication US9540369B2, “Use of kinase inhibitors to increase the susceptibility of gram positive bacteria to beta lactam antibiotics” (Wisconsin Alumni Research Foundation, priority 2014, dated 2017)
“Also recorded” adds a separate entry of the source.

How the values were obtained:
M. smegmatis = M. smegmatis growth curves with or without meropenem; format: cell-based, Mycobacterium smegmatis; conditions: 10 μM inhibitor
Description: Various AIA drugs were administered at 10 μM concentration to M. smegmatis, L. monocytogenes, and S. aureus.

L. monocytogenes [1] = assay: Broth growth curves of L. monocytogenes with antibiotic in presence or absence of kinase inhibitor; format: cell-based, Listeria monocytogenes; conditions: for synergy with ceftriaxone against L. monocytogenes: AIA drugs at 10 μM; for inhibition of growth in a β-lactam synergistic dependent manner: ceftriaxone
MSRA = conditions: β-lactam dependent growth inhibition
L. monocytogenes [2] = format: cell-based, Listeria monocytogenes; conditions: β-lactam dependent growth inhibition
Stk1 = assay: Kinase-Glo assay, Stk1; format: biochemical, S. aureus; conditions: 0-40 μM inhibitor, 20 μM ATP, 10 μM MBP
PrkA [3] = assay: Kinase-Glo assay, PrkA; format: biochemical, L. monocytogenes
[4] = target: PrkA (PASTA kinase of L. monocytogenes; kinase domain, GST fusion) (Listeria monocytogenes, UniProt A0A0H3GI69); assay: biochemical
PknB = PknB (Mycobacterium tuberculosis, UniProt P9WI81)
zebrafish (Danio rerio) = assay: Zebrafish toxicity assay; conditions: administered in their environment for five days
Description: Human kinase inhibitors were administered to zebrafish in their environment for five days.

[5] = test system: Methicillin-resistant S. aureus (strain USA300); assay: Broth growth curves of Methicillin-resistant S. aureus (USA300) with antibiotic in presence or absence of kinase inhibitor; format: cell-based, Staphylococcus aureus
Lmo0618 = assay: In vitro protein phosphorylation (autophosphorylation and MBP phosphorylation), Lmo0618; format: biochemical, L. monocytogenes; conditions: 1 μM, 10 μM or 100 μM inhibitor
Description: (§1) In vitro protein phosphorylation. […] To investigate substrate-level phosphorylation, ˜10 μg of myelin basic protein (Novatein Biosciences, Woburn, Mass.) were added to the reaction mixture described above and incubated at room temperature, overnight. The reactions were terminated by adding 5X SDS loading buffer. Samples were fractionated by SDS-PAGE, fixed and dried, and analyzed by autoradiography.

PrkA [6] = assay: In vitro protein phosphorylation (autophosphorylation and MBP phosphorylation), PrkA; format: biochemical, L. monocytogenes; conditions: 1 μM, 10 μM or 100 μM inhibitor
Description: as §1

[7] = 0-40 μM inhibitor, 20 μM ATP, 10 μM MBP

Q: For CCn1c(-c2nonc2N)nc2c(C#CC(C)(C)O)nc(O[C@@H](CN)c3ccccc3)cc21.O=C(O)C(F)(F)F [GSK1007102B], which “synergistic activity with meropenem against M. smegmatis” value (“synergistic activity with meropenem” for short) (M. smegmatis) is on record?
A: showing such a synergistic effect

Q: What about the “effect on M. smegmatis growth in the absence of a β-lactam” value (M. smegmatis; no additional drugs) of the same compound?
A: minor affect on growth; also recorded: shows inhibition in the absence of a β-lactam

Q: And the “synergy with ceftriaxone against L. monocytogenes” value (from here on “synergy with ceftriaxone”) (L. monocytogenes [1])?
A: can inhibit growth in concert with ceftriaxone

Q: For CCn1c(-c2nonc2N)nc2c(C#CC(C)(C)O)nc(OCCNC)cc21 [GSK949675A], which “synergistic activity with meropenem” value (M. smegmatis) is on record?
A: None

Q: And the “effective dose against MSRA” value (MSRA)?
A: 10 µM

Q: And the “synergy with ceftriaxone” value (L. monocytogenes [1])?
A: can inhibit growth in concert with ceftriaxone

Q: What about the “effective dose against L. monocytogenes” value (L. monocytogenes [2]) of the same compound?
A: 10 µM

Q: For CCn1c(-c2nonc2N)nc2c(C#CC(C)(C)O)ncc(OC[C@H]3CCCNC3)c21 [GSK690693, 4-(2-(4-amino-1,2,5-oxadiazol-3-yl)-1-ethyl-7-{[(3S)-3-piperidinylmethyl]oxy}-1H-imidazo[4,5-c]pyridin-4-yl)-2-methyl-3-butyn-2-ol], which “synergistic activity with meropenem” value (M. smegmatis) is on record?
A: exhibits synergy; also recorded: can work to inhibit growth synergistically with meropenem

Q: What about the “inhibition of Stk1 enzymatic activity in vitro” value (Stk1) of the same compound?
A: can inhibit

Q: And the “synergy with ceftriaxone” value (L. monocytogenes [1])?
A: can inhibit growth in concert with ceftriaxone

Q: And the “inhibition of growth in a β-lactam synergistic dependent manner” value (L. monocytogenes [1]; 100 μM GSK690693)?
A: inhibited L. monocytogenes growth in a β-lactam synergistic dependent manner

Q: And the “inhibition of PrkA enzymatic activity in vitro” value (PrkA [3]; [7])?
A: can inhibit

Q: What about the “inhibition for PrkA compared to Stk1” value (PrkA [3]; biochemical) of the same compound?
A: four-fold increase in inhibition

Q: What about the “effective dose against L. monocytogenes” value (L. monocytogenes [2]) of the same compound?
A: 10 µM

Q: And the IC50 [4]?
A: 1200 nM

Q: And the “inhibition of PknB enzymatic activity in vitro” value (PknB; [7])?
A: can inhibit

Q: And the “inhibition for PknB compared to Stk1” value (PknB; biochemical)?
A: four-fold increase in inhibition

Q: What about the toxicity in zebrafish (zebrafish (Danio rerio)) of the same compound?
A: does not induce toxicity

Q: Which “synergistic activity with meropenem” value (M. smegmatis) does the source give for CCn1c(-c2nonc2N)nc2c(C#CC(C)(C)O)nc(OC[C@H](N)c3ccccc3)cc21 [GSK943949A] here?
A: None

Q: And the “synergy with ceftriaxone” value (L. monocytogenes [1])?
A: can inhibit growth in concert with ceftriaxone

Q: For CCn1c(-c2nonc2N)nc2c(C#CC(C)(C)O)ncc(OC[C@@H]3CCCN3)c21 [GSK614526A], which “synergistic activity with meropenem” value (M. smegmatis) is on record?
A: None

Q: What about the “synergy with ceftriaxone” value (L. monocytogenes [1]) of the same compound?
A: can inhibit growth in concert with ceftriaxone

Q: How did the toxicity in zebrafish (zebrafish (Danio rerio)) turn out when O=c1c2ccccc2[nH]c(=S)n1CCN1CCC(=C(c2ccc(F)cc2)c2ccc(F)cc2)CC1 [diacylglycerol kinase inhibitor II] was run?
A: highly toxic

Q: Which results are given for CN[C@@H]1C[C@H]2O[C@@](C)([C@@H]1OC)n1c3ccccc3c3c4c(c5c6ccccc6n2c5c31)C(=O)NC4 [staurosporine]?
A: S. aureus susceptibility to ceftriaxone or other β-lactam or non-β-lactam antibiotics ([5]; 10 μM staurosporine): unaffected; susceptibility to vancomycin or kanamycin (L. monocytogenes [1]; 10 μM staurosporine): unaffected; increase in susceptibility to ceftriaxone upon overexpression of prkA (L. monocytogenes [1]; prkA^theo strain, 2 mM theophylline, 10 μM staurosporine): 10 fold; bacterial morphology by immunofluorescence microscopy (L. monocytogenes [1]; staurosporine combined with β-lactam antibiotics): grossly disrupted bacterial morphology; sensitization to lysozyme (L. monocytogenes [1]; staurosporine, data not shown): increased the sensitization; increase in susceptibility to ceftriaxone (L. monocytogenes [1]; wild type, 10 μM staurosporine): 100 fold

Q: Which “inhibition of Lmo0618 phosphorylation activity” value (Lmo0618) does the source give for Cc1ncc(-c2ccnc(Nc3ccc(S(C)(=O)=O)cc3)n2)n1C(C)C [AZD5438] here?
A: not inhibiting

Q: What about the “synergy with β-lactam antibiotics against S. aureus” value ([5]; AZD5438, data not shown) of the same compound?
A: not S. aureus

Q: What about the “inhibition of PrkA autophosphorylation and substrate level (MBP) phosphorylation” value (PrkA [6]) of the same compound?
A: specifically inhibits PrkA

Q: And the “inhibition of growth in a β-lactam synergistic dependent manner” value (L. monocytogenes [1]; 50 μM AZD5438)?
A: capable of inhibiting L. monocytogenes growth

Q: What about the “effective dose against L. monocytogenes” value (L. monocytogenes [2]) of the same compound?
A: 10 µM

Q: Which “synergistic activity with meropenem” value (M. smegmatis) does the source give for CCn1c(-c2nonc2N)nc2c(C#CC(C)(C)O)nc(CN3CCCC3)cc21 [GW1000163A] here?
A: None

Q: What about the “synergy with ceftriaxone” value (L. monocytogenes [1]) of the same compound?
A: did not exhibit such synergistic activity

Q: For CCn1c(-c2nonc2N)nc2c(C#CC(C)(C)O)nc(OC[C@@H](N)c3ccccc3)cc21 [GSK938890A], which “synergistic activity with meropenem” value (M. smegmatis) is on record?
A: None

Q: What about the “synergy with ceftriaxone” value (L. monocytogenes [1]) of the same compound?
A: can inhibit growth in concert with ceftriaxone

Q: And the “effective dose against L. monocytogenes” value (L. monocytogenes [2])?
A: 10 µM
